According to PMC10453766, “Comparison of the Effects of DOTA and NOTA Chelators on ^64Cu-Cudotadipep and ^64Cu-Cunotadipep for Prostate Cancer” (Diagnostics, 2023):

Experiments:
[1] = system: PC3-flu (PSMA−) cells; assay: Cell uptake in PC3-flu cells; assay type: cell-based, human; conditions: 1 × 10^6 cells, 3.7 MBq, 2 h, 37 °C
Method: (§1) PC3-PIP or PC3-flu cells (1 × 10^6) were mixed with 3.7 MBq (100 μCi) of ^64Cu-cudotadipep or ^64Cu-cunotadipep and incubated at 37 °C and 5% CO2 for 2 h. Following incubation, the cells were washed with PBS twice and collected via centrifugation (2000 rpm, 5 min). Radioactivity was measured using 2480 WIZARD2 gamma counter (Perkin Elmer, Waltham, MA, USA). Percent (%) uptake was calculated using the ratio between the radioactivity of the cells and treated radioactivity.

[2] = Biodistribution in normal BALB/c mice; assay type: in vivo, mouse; conditions: tail vein
Method: (§2) Approximately 0.93 MBq ^64Cu-cudotadipep or ^64Cu-cunotadipep was injected via the tail vein into normal BALB/c mice or PC3-PIP tumor-bearing nude mice (n = 5/group). Normal and tumor-bearing mice were euthanized at 2, 6, 24, and 48 h following injection. Tumor and normal tissues were excised and weighed, and their radioactivity was measured using a gamma counter (2480 WIZARD2 gamma counter, Perkin Elmer, Waltham, MA, USA). The radioactivity measured in each tissue was expressed as a percentage of the injected dose per gram of tissue (%ID/g).

[3] = system: PC3-PIP tumor xenograft; assay: Biodistribution in PC3-PIP tumor-bearing nude mice; assay type: in vivo, mouse; conditions: tail vein
Method: All animal experiments followed the procedures approved by the Institutional Animal Care and Use Committee of Korea Institute of Radiological & Medical Sciences (approval No. KIRAMS2021-0044). Male BALB/c mice and athymic nude (Nu/Nu) BALB/c mice (weighing 20–25 g, 8 weeks old) were purchased from Nara Biotech (Seoul, Republic of Korea). PC3-PIP cells (1 × 10^7) were dispensed in 100 μL PBS, mixed with Matrigel, and subcutaneously implanted in the right thigh of male athymic nude (Nu/Nu) BALB/c mice. When the tumor reached 0.5–0.9 cm in diameter (2–3 weeks following implantation), biodistribution studies and PET imaging were performed.
as §2

[4] = Serum stability in mouse serum (radio-TLC); assay type: in vitro ADME; conditions: 37 °C, 2, 24 and 48 h
Method: (§3) The serum stabilities of ^64Cu-cudotadipep and ^64Cu-cunotadipep were evaluated in human and mouse sera for 48 h. Briefly, 10 µL ^64Cu-cudotadipep (3.7 MBq) or […] (3.7 MBq) was mixed with 90 µL human or mouse serum and then incubated at 37 °C for 48 h. At each time point (2, 24, and 48 h), a 10 µL sample was removed, mixed with 100 µL distilled water, filtered through a 0.22 µm membrane filter, and then analyzed using radio-thin layer chromatography (TLC eluent condition: 1 M NH4OAc:MeOH = 1:1). The radio-TLCs were performed using a radio-TLC imaging scanner (BioScan, Washington, DC, USA) for radiodetection.

[5] = Serum stability in human serum (radio-TLC); assay type: in vitro ADME; conditions: 37 °C, 2, 24 and 48 h
Method: as §3

[6] = Radiation-absorbed dose calculation (OLINDA/EXM) from normal mouse biodistribution; parameters: species or system human
Method: The biodistribution results of normal BALB/c mice were used to evaluate the human radiation-absorbed dose. The internal absorbed doses of ^64Cu-cudotadipep and ^64Cu-cunotadipep were evaluated using the residence time and total amount of radioactivity in the target organ of the mice. The internal absorbed dose of the mice was converted to the human dose based on the Medical Internal Radiation Dose schema, using OLINDA/EXM version 1.1 software.

[7] = system: PC3-PIP (PSMA+) cells; assay: Cell uptake in PC3-PIP cells; assay type: cell-based, human; conditions: PC3-PIP cells, 1 × 10^6 cells, 3.7 MBq, 2 h, 37 °C
Method: as §1

SMILES: O=C([O-])CN1CCN(CC(=O)[O-])CCN(CC(=O)N[C@@H](CCCCNC(=O)CCCc2ccc(I)cc2)C(=O)NCCOCCOCC(=O)N(CCCC[C@H](NC(=O)N[C@@H](CCC(=O)O)C(=O)O)C(=O)O)CC(=O)O)CC1.[64Cu+2] [^64Cu-cunotadipep]
- cellular uptake [1]: 1.52 ± 0.03%
- Biodistribution, Blood ([2]; 2 h): 9.51 ± 7.25 %ID/g
- Biodistribution, Bone ([2]; 2 h): 1.07 ± 0.24 %ID/g
- Biodistribution, Brain ([2]; 2 h): 0.26 ± 0.12 %ID/g
- Biodistribution, Fat ([2]; 2 h): 1.20 ± 0.35 %ID/g
- Biodistribution, Heart ([2]; 2 h): 3.17 ± 1.12 %ID/g
- Biodistribution, Intestine ([2]; 2 h): 2.21 ± 0.35 %ID/g
- Biodistribution, Kidney ([2]; 2 h): 53.28 ± 19.92 %ID/g
- Biodistribution, Liver ([2]; 2 h): 4.38 ± 1.51 %ID/g
- Biodistribution, Lung ([2]; 2 h): 5.48 ± 2.24 %ID/g
- Biodistribution, Muscle ([2]; 2 h): 1.30 ± 0.42 %ID/g
- Biodistribution, Spleen ([2]; 2 h): 5.07 ± 1.38 %ID/g
- Biodistribution, Stomach ([2]; 2 h): 1.21 ± 0.49 %ID/g
- Biodistribution, Blood ([2]; 6 h): 5.62 ± 0.95 %ID/g
- Biodistribution, Bone ([2]; 6 h): 0.89 ± 0.22 %ID/g
- Biodistribution, Brain ([2]; 6 h): 0.19 ± 0.02 %ID/g
- Biodistribution, Fat ([2]; 6 h): 0.99 ± 0.27 %ID/g
- Biodistribution, Heart ([2]; 6 h): 2.25 ± 0.33 %ID/g
- Biodistribution, Intestine ([2]; 6 h): 1.69 ± 0.55 %ID/g
- Biodistribution, Kidney ([2]; 6 h): 58.85 ± 6.00 %ID/g
- Biodistribution, Liver ([2]; 6 h): 4.11 ± 0.53 %ID/g
- Biodistribution, Lung ([2]; 6 h): 4.76 ± 0.51 %ID/g
- Biodistribution, Muscle ([2]; 6 h): 1.05 ± 0.14 %ID/g
- Biodistribution, Spleen ([2]; 6 h): 5.05 ± 1.56 %ID/g
- Biodistribution, Stomach ([2]; 6 h): 0.92 ± 0.45 %ID/g
- Biodistribution, Blood ([2]; 24 h): 1.39 ± 0.15 %ID/g
- Biodistribution, Bone ([2]; 24 h): 0.60 ± 0.03 %ID/g
- Biodistribution, Brain ([2]; 24 h): 0.13 ± 0.01 %ID/g
- Biodistribution, Fat ([2]; 24 h): 0.63 ± 0.26 %ID/g
- Biodistribution, Heart ([2]; 24 h): 1.22 ± 0.06 %ID/g
- Biodistribution, Intestine ([2]; 24 h): 1.16 ± 0.24 %ID/g
- Biodistribution, Kidney ([2]; 24 h): 37.40 ± 1.84 %ID/g
- Biodistribution, Liver ([2]; 24 h): 5.32 ± 0.12 %ID/g
- Biodistribution, Lung ([2]; 24 h): 2.53 ± 0.20 %ID/g
- Biodistribution, Muscle ([2]; 24 h): 0.42 ± 0.05 %ID/g
- Biodistribution, Spleen ([2]; 24 h): 2.56 ± 0.33 %ID/g
- Biodistribution, Stomach ([2]; 24 h): 0.67 ± 0.22 %ID/g
- Biodistribution, Blood ([2]; 48 h): 0.45 ± 0.15 %ID/g
- Biodistribution, Bone ([2]; 48 h): 0.83 ± 0.10 %ID/g
- Biodistribution, Brain ([2]; 48 h): 0.18 ± 0.01 %ID/g
- Biodistribution, Fat ([2]; 48 h): 0.40 ± 0.10 %ID/g
- Biodistribution, Heart ([2]; 48 h): 0.95 ± 0.07 %ID/g
- Biodistribution, Intestine ([2]; 48 h): 0.56 ± 0.08 %ID/g
- Biodistribution, Kidney ([2]; 48 h): 9.55 ± 2.33 %ID/g
- Biodistribution, Liver ([2]; 48 h): 3.86 ± 0.31 %ID/g
- Biodistribution, Lung ([2]; 48 h): 1.32 ± 0.13 %ID/g
- Biodistribution, Muscle ([2]; 48 h): 0.45 ± 0.04 %ID/g
- Biodistribution, Spleen ([2]; 48 h): 1.19 ± 0.11 %ID/g
- Biodistribution, Stomach ([2]; 48 h): 0.44 ± 0.11 %ID/g
- Biodistribution, Blood ([3]; 2 h): 9.81 ± 3.47 %ID/g
- Biodistribution, Bone ([3]; 2 h): 5.71 ± 1.47 %ID/g
- Biodistribution, Fat ([3]; 2 h): 5.72 ± 5.53 %ID/g
- Biodistribution, Heart ([3]; 2 h): 4.56 ± 1.25 %ID/g
- Biodistribution, Intestine ([3]; 2 h): 2.97 ± 1.15 %ID/g
- Biodistribution, Kidney ([3]; 2 h): 65.02 ± 22.42 %ID/g
- Biodistribution, Liver ([3]; 2 h): 8.33 ± 2.29 %ID/g
- Biodistribution, Lung ([3]; 2 h): 7.72 ± 2.30 %ID/g
- Biodistribution, Muscle ([3]; 2 h): 2.14 ± 0.59 %ID/g
- Biodistribution, Spleen ([3]; 2 h): 8.58 ± 3.99 %ID/g
- Biodistribution, Stomach ([3]; 2 h): 2.50 ± 1.05 %ID/g
- Biodistribution, Tumor ([3]; 2 h): 22.61 ± 14.10 %ID/g
- Biodistribution, Blood ([3]; 6 h): 4.01 ± 0.94 %ID/g
- Biodistribution, Bone ([3]; 6 h): 1.81 ± 1.50 %ID/g
- Biodistribution, Fat ([3]; 6 h): 4.14 ± 1.33 %ID/g
- Biodistribution, Heart ([3]; 6 h): 2.59 ± 0.38 %ID/g
- Biodistribution, Intestine ([3]; 6 h): 2.74 ± 0.80 %ID/g
- Biodistribution, Kidney ([3]; 6 h): 91.48 ± 12.98 %ID/g
- Biodistribution, Liver ([3]; 6 h): 6.96 ± 1.00 %ID/g
- Biodistribution, Lung ([3]; 6 h): 5.75 ± 2.72 %ID/g
- Biodistribution, Muscle ([3]; 6 h): 1.44 ± 0.56 %ID/g
- Biodistribution, Spleen ([3]; 6 h): 6.63 ± 0.12 %ID/g
- Biodistribution, Stomach ([3]; 6 h): 1.42 ± 0.53 %ID/g
- Biodistribution, Tumor ([3]; 6 h): 35.14 ± 9.68 %ID/g
- Biodistribution, Blood ([3]; 24 h): 1.23 ± 0.38 %ID/g
- Biodistribution, Bone ([3]; 24 h): 2.81 ± 1.71 %ID/g
- Biodistribution, Fat ([3]; 24 h): 0.74 ± 0.20 %ID/g
- Biodistribution, Heart ([3]; 24 h): 1.64 ± 0.12 %ID/g
- Biodistribution, Intestine ([3]; 24 h): 2.38 ± 0.42 %ID/g
- Biodistribution, Kidney ([3]; 24 h): 50.29 ± 7.06 %ID/g
- Biodistribution, Liver ([3]; 24 h): 6.99 ± 0.45 %ID/g
- Biodistribution, Lung ([3]; 24 h): 4.58 ± 1.08 %ID/g
- Biodistribution, Muscle ([3]; 24 h): 0.41 ± 0.06 %ID/g
- Biodistribution, Spleen ([3]; 24 h): 2.79 ± 0.87 %ID/g
- Biodistribution, Stomach ([3]; 24 h): 1.27 ± 0.08 %ID/g
- Biodistribution, Tumor ([3]; 24 h): 37.13 ± 3.65 %ID/g
- Biodistribution, Blood ([3]; 48 h): 1.08 ± 0.27 %ID/g
- Biodistribution, Bone ([3]; 48 h): 3.42 ± 0.40 %ID/g
- Biodistribution, Fat ([3]; 48 h): 2.36 ± 1.25 %ID/g
- Biodistribution, Heart ([3]; 48 h): 1.91 ± 0.57 %ID/g
- Biodistribution, Intestine ([3]; 48 h): 1.54 ± 0.16 %ID/g
- Biodistribution, Kidney ([3]; 48 h): 52.07 ± 18.32 %ID/g
- Biodistribution, Liver ([3]; 48 h): 5.74 ± 1.83 %ID/g
- Biodistribution, Lung ([3]; 48 h): 3.64 ± 1.14 %ID/g
- Biodistribution, Muscle ([3]; 48 h): 0.80 ± 0.22 %ID/g
- Biodistribution, Spleen ([3]; 48 h): 3.56 ± 1.14 %ID/g
- Biodistribution, Stomach ([3]; 48 h): 1.14 ± 0.31 %ID/g
- Biodistribution, Tumor ([3]; 48 h): 28.84 ± 13.04 %ID/g
- serum stability [4]: > 98%
- serum stability [5]: > 98%
- effective dose ([6]; ICRP tissue-weighting factors, OLINDA/EXM, extrapolated from mouse biodistribution): 3.00 × 10^−2 mSv/MBq
- estimated radiation-absorbed dose, kidneys ([6]; adult males, extrapolated from normal BALB/c mouse biodistribution): 2.02 mGy/MBq
- cellular uptake [7]: 6.02 ± 0.05%
